Assay results: publication PMC12131194, “Rational design, synthesis, and evaluation of novel polypharmacological compounds targeting NaV1.5, KV1.5, and K2P channels for atrial fibrillation” (The Journal of Biological Chemistry, 2025)
Where “and” joins values, the source holds several entries; their conditions need not be identical. Equal values may be shown once.

Key:
human TASK-1 = human TASK-1 (Homo sapiens, UniProt O14649); test: TEVC recordings in X. laevis oocytes, TASK-1; type: cell-based; set-up: human TASK-1 (KCNK3, NM_002246); expressed in transfected cells; host or cells: Xenopus laevis oocytes injected with cRNA; conditions: for Ionic current block IK2P: from inhibition curves, used for simulation
Description: (§1) The two-electrode voltage clamp (TEVC) technique was used for electrophysiology tests. Channels were expressed in Xenopus laevis oocytes. The initial channel-blocking potential was assessed at 100 μM for the 10 synthesized compounds on TASK-1 and KV1.5 channels.
(§2) To obtain X. laevis oocytes, the frogs were anesthetized with 2 g/L of tricaine methanesulfonate, and the ovarian lobes were mechanically separated with forceps. The oocytes were incubated for 120 min in an OR2 solution containing in mM: NaCl 82.5, KCl 2, MgCl2 1, HEPES 5 (pH 7.5) supplemented with 2 mg/ml of collagenase II (Sigma) to remove residual connective tissue and obtain individual oocytes. Subsequently, the oocytes were washed with a ND96 solution containing in mM: NaCl 96, KCl 2, CaCl2 1.8, MgCl2 1, HEPES 5 (pH 7.5, adjusted with NaOH) and stored at 18 °C in ND96 solution supplemented with 1 ml of gentamicin (50 mg/L), sodium pyruvate (275 mg/L) and (90 mg/L) theophylline (inhibits further oocyte maturation) before and after RNA injection.
(§3) In order to overexpress the channel in the oocyte, each of the channels to be measured was subcloned (complementary DNA (cDNA); human TASK-1 (KCNK3, NM_002246), h KV1.5 (KCNA5, NM_002234), h NaV1.5 (hH1, M77235), TASK-4/TALK-2 (KCNK17, NM_AF358910), TREK-1 (KCNK2, AF004711) and Kir2.1 (KCNJ2, NM_017296) into pSGEM, pBF1 or pSP64 expression vector, and the cDNA was linearized with NheI or MluI. Complementary RNA (cRNA) was synthesized with the mMESSAGE mMACHINE-Kit (Ambion). The quality of the cRNA was tested on an agarose gel by electrophoresis. cRNA was quantified using a UV-Vis spectrophotometer (NanoDrop 2000). Subsequently, the channel was transfected in the oocytes in stages V and VI, for which […] (TASK-1, KV1.5 or TREK-1), 10 ng (NaV1.5 or TASK-4) o 2.5 ng (Kir2.1) per oocyte of cRNA was injected with a NanojectII microinjector (Drummond Scientific). The oocytes were stored in 24-well plates for 24 to 48 h at 18 °C. After this time, the overexpression of each channel was monitored through electrophysiology.
(§4) Two-electrode voltage clamp measurements were performed 24 or 48 h after cRNA injection at room temperature (20–22 °C) in ND96 recording solution with a TurboTEC-10CD (npi) amplifier and a Digidata 1550B (for TASK-1 and KV1.5) and 1440A (for NaV1.5) A/D converter from Axon Instruments. Micropipettes were fabricated from GB 150 TF-8P borosilicate glass capillaries (Science Products) elongated in a DMZ-Universal Puller (Zeitz, Germany). […] ND96 was used as bath solution. Data acquisition was performed using Clampex 10 software (Axon Instruments), and data were analyzed with ClampFit 10 (Axon Instruments) and Origin 7 (Origin Lab Corporation).
(§5) For compound inhibition testing, from a holding potential of −80 mV a first test pulse to 0 mV of 1 s duration was followed by a repolarization step at −80 mV for 1 s, directly followed by another 1 s test pulse at +40 mV. The sweep time interval was 10 s for KV1.5 and TASK-1 channels. For the NaV1.5 channel, the block was analyzed with voltage steps from a holding potential of −80 mV. A first depolarizing pulse to −30 mV of 50 ms duration was applied, followed by a 5 ms step to −80 mV. The sweep time interval was 5 s. The compounds were applied at different concentrations to determine the half-maximal inhibitory concentration (IC50), using a fit to the Hill equation.
(§6) To test for a putative voltage-dependence of the block by the compound 6f in KV1.5, a 1.5 s voltage step protocol from −80 to +80 mV with +20 mV increments was used. The holding potential was −80 mV and the sweep time interval was 10 s. Currents were analyzed at the end of the voltage pulse. For TASK-1, voltage-dependence of block was probed using a high-potassium solution (KD96) containing in mM: KCl 96, NaCl 2, CaCl2 1.8, MgCl2 1, HEPES 5, (pH 7.5, adjusted with KOH). From a holding potential of 0 mV, voltage was stepped from −80 mV to +80 mV for 1.5 s in +20 mV steps every 10 s. […]

h KV1.5 = target: T1, h KV1.5 (Homo sapiens, UniProt P22460); test: TEVC recordings in X. laevis oocytes, KV1.5; type: cell-based; conditions: for Ionic current block IKur: from inhibition curves, used for simulation
T1 construct: h KV1.5 (KCNA5, NM_002234); expressed in transfected cells; host or cells: Xenopus laevis oocytes injected with cRNA
Description: as §1, §2, §3, §4, §5, §6

[1] = 100 μM, +40 mV, oocytes, mean ± SD
[2] = X. laevis oocytes, TEVC, block at +40 mV

human TASK-1, sequence (O14649 whole entry): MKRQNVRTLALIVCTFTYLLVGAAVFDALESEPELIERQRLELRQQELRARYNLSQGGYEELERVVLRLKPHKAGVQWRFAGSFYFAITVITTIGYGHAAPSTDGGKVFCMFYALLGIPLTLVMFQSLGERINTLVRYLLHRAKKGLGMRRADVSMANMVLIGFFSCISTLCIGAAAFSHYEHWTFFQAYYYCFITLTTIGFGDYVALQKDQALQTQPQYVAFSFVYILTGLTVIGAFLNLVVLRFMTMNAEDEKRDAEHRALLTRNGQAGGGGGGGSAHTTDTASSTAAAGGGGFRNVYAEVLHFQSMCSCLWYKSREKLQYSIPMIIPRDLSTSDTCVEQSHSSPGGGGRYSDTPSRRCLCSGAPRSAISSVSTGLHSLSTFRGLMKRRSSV
T1 sequence (P22460 whole entry): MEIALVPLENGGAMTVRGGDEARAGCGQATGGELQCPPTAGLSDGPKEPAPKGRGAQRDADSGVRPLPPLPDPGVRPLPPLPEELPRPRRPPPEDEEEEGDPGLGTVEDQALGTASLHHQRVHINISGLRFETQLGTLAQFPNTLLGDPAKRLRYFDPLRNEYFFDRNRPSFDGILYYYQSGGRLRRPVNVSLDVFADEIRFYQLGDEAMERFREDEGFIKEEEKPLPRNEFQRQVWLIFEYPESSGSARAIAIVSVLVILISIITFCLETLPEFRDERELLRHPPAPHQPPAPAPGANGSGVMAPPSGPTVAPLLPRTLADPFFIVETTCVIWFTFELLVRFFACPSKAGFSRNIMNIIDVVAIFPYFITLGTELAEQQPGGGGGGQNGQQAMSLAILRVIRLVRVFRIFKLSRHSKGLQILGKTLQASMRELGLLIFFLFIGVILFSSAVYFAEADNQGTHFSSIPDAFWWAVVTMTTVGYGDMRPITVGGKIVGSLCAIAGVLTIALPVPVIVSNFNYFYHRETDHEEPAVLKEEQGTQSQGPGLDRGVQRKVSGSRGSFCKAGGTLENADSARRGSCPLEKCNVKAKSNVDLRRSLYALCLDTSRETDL

**Q.** Which results are given for `CCCCN(CCCC)CC(=O)Nc1ccc(OC)cc1OC` [Compound 6f, 2-(dibutylamine)-N-(2,4-dimethoxiphenyl)acetamide]?
**A.** Ionic current block IK2P (human TASK-1; 1 μM): 58%; Ionic current block IK2P (human TASK-1; 10 μM): 75%; inhibition at 100 µM (human TASK-1; [1]): 84.1 ± 10.7%; Ionic current block IK2P (human TASK-1; 100 μM): 85%; IC50 (human TASK-1; [2]): ~310 nM and 310 nM; Voltage-dependence of block of TASK-1 (human TASK-1; oocytes, KD96 solution): no significant voltage-dependence; Ionic current block IKur (h KV1.5; 1 μM): 0%; Ionic current block IKur (h KV1.5; 10 μM): 2.5%; inhibition at 100 µM (h KV1.5; [1]): 55.8 ± 11.5%; Ionic current block IKur (h KV1.5; 100 μM): 50%; IC50 (h KV1.5; [2]): 81500 nM; Voltage-dependence of block of KV1.5 (h KV1.5; oocytes, 100 μM): no significant voltage-dependence
